Columns and labels:
[1] = refractive index (Na D-line) (dimensionless); xn = mol fraction of the nth substance listed; settings: 101 kPa, Liquid
[2] = xn = mol fraction of the nth substance listed; settings: 101 kPa, Liquid; for speed of sound: Sing-around technique in a fixed-path interferometer
[3] = refractive index (Na D-line) (dimensionless); settings: 101.33 kPa, Liquid
[4] = 101 kPa, Liquid; for speed of sound: Sing-around technique in a fixed-path interferometer

COc1ccccc1 [anisole] + CC1CCCCC1
Settings	mass density, 298.15 K [kg/m3]	mass density, 303.15 K [kg/m3]	mass density, 308.15 K [kg/m3]	refractive index, 298.15 K	refractive index, 303.15 K	refractive index, 308.15 K	speed of sound, 298.15 K [m/s]	viscosity, 298.15 K [mPa·s]	viscosity, 303.15 K [mPa·s]	viscosity, 308.15 K [mPa·s]
[1], x2 = 0	–	–	–	1.5136	1.5112	1.5088	–	–	–	–
[1], x2 = 0.1025	–	–	–	1.5023	1.5036	1.4978	–	–	–	–
[1], x2 = 0.2009	–	–	–	1.4917	1.489	1.487	–	–	–	–
[1], x2 = 0.3006	–	–	–	1.4813	1.4801	1.4766	–	–	–	–
[1], x2 = 0.406	–	–	–	1.4706	1.4701	1.4659	–	–	–	–
[1], x2 = 0.5043	–	–	–	1.4609	1.4586	1.4563	–	–	–	–
[1], x2 = 0.6058	–	–	–	1.4516	1.4497	1.4467	–	–	–	–
[1], x2 = 0.7026	–	–	–	1.4431	1.4408	1.4382	–	–	–	–
[1], x2 = 0.8023	–	–	–	1.4351	1.4323	1.4301	–	–	–	–
[1], x2 = 0.9053	–	–	–	1.4278	1.4242	1.4226	–	–	–	–
[2], x2 = 0	989.2	984.5	979.8	–	–	–	1410	1.008	0.929	0.861
[2], x2 = 0.1025	962.1	957.4	952.7	–	–	–	1391	0.924	0.905	0.808
[2], x2 = 0.2009	936.5	931.8	927.2	–	–	–	1372	0.854	0.792	0.737
[2], x2 = 0.3006	911.8	907.2	902.6	–	–	–	1352	0.793	0.734	0.693
[2], x2 = 0.406	886.7	882.2	877.6	–	–	–	1333	0.75	0.694	0.654
[2], x2 = 0.5043	864.4	860.1	855.4	–	–	–	1314	0.717	0.664	0.627
[2], x2 = 0.6058	842.2	837.8	833.3	–	–	–	1294	0.689	0.645	0.605
[2], x2 = 0.7026	821.9	817.3	813	–	–	–	1275	0.675	0.634	0.593
[2], x2 = 0.8023	801.8	797.4	792.9	–	–	–	1256	0.667	0.621	0.584
[2], x2 = 0.9053	782.1	777.8	773.4	–	–	–	1236	0.666	0.622	0.583

Cc1ccc(C)cc1 [1,4-dimethylbenzene]
Settings	mass density, 298.15 K [kg/m3]	mass density, 303.15 K [kg/m3]	mass density, 308.15 K [kg/m3]	refractive index, 298.15 K	refractive index, 303.15 K	refractive index, 308.15 K	speed of sound, 298.15 K [m/s]	viscosity, 298.15 K [mPa·s]	viscosity, 303.15 K [mPa·s]	viscosity, 308.15 K [mPa·s]
[3]	–	–	–	1.4926	1.4893	1.4867	–	–	–	–
[4]	856.7	852.3	848	–	–	–	1326	0.611	0.572	0.54

c1ccccc1 [benzene]
Settings	mass density, 298.15 K [kg/m3]	mass density, 303.15 K [kg/m3]	mass density, 308.15 K [kg/m3]	refractive index, 298.15 K	refractive index, 303.15 K	refractive index, 308.15 K	speed of sound, 298.15 K [m/s]	viscosity, 298.15 K [mPa·s]	viscosity, 303.15 K [mPa·s]	viscosity, 308.15 K [mPa·s]
[3]	–	–	–	1.4971	1.4936	1.4903	–	–	–	–
[4]	873.4	868.1	862.7	–	–	–	1302	0.602	0.56	0.523

Cc1cc(C)cc(C)c1 [1,3,5-trimethylbenzene]
Settings	mass density, 298.15 K [kg/m3]	mass density, 303.15 K [kg/m3]	mass density, 308.15 K [kg/m3]	refractive index, 298.15 K	refractive index, 303.15 K	refractive index, 308.15 K	speed of sound, 298.15 K [m/s]	viscosity, 298.15 K [mPa·s]	viscosity, 303.15 K [mPa·s]	viscosity, 308.15 K [mPa·s]
[3]	–	–	–	1.496	1.4936	1.4913	–	–	–	–
[4]	861.2	857.1	853	–	–	–	1346	0.667	0.622	0.586

CC1CCCCC1 [methylcyclohexane] + COc1ccccc1
x1 = 1
Settings	mass density, 298.15 K [kg/m3]	mass density, 303.15 K [kg/m3]	mass density, 308.15 K [kg/m3]	refractive index, 298.15 K	refractive index, 303.15 K	refractive index, 308.15 K	speed of sound, 298.15 K [m/s]	viscosity, 298.15 K [mPa·s]	viscosity, 303.15 K [mPa·s]	viscosity, 308.15 K [mPa·s]
[1]	–	–	–	1.4217	1.4192	1.4163	–	–	–	–
[2]	765	760.7	756.3	–	–	–	1217	0.676	0.631	0.59
